# Test results reported in the Bradley open melting point set (2014).
# Values joined by “and” are separate entries in the source; they are usually repeats but may differ in a detail not shown here. Equal values may be shown once.
row,Compound,melting point
1,Oc1cccc(Cl)c1 [3-Chlorophenol],33 °C and 32.6 °C
2,Oc1ccccc1O [catechol],105 °C
3,"c1ccc2c(c1)Cc1cc3ccccc3cc1-2 [2,3-benzofluorene]",210 °C
4,CC(CN1c2ccccc2Sc2ccccc21)N(C)C (stereo unspecified) [promethazine],60 °C
5,CCOC(=O)[C@@H]1CC[C@H](C(C)=O)[C@@H]1NC(=O)OC(C)(C)C,110 °C
6,COc1ccc2c(c1)c(CC(=O)O)c(C)n2C(=O)c1ccc(Cl)cc1 [indomethacin],160 °C
7,Oc1ccc2ccccc2c1Br [1-bromo-2-naphthol],79 °C
8,"CC(=O)c1cc(O)cc(O)c1 [3',5'-dihydroxyacetophenone]",144 °C
9,COc1ccc(C(=O)O)cc1 [4-methoxybenzoic acid],184 °C
10,C/C=C\CC [cis-2-pentene],-151 °C
11,O=CC1CCCCC1 [cyclohexanecarbaldehyde],34.5 °C
12,CCCCCCCCCCCCCCCC [N-hexadecane],18 °C
13,OC1CCCCC1 [cyclohexanol],25.9 °C
14,CC(C)SC(C)C [Diisopropyl sulfide],-106 °C
15,Cc1cc(Br)ncc1B(O)O [6-bromo-4-methylpyridine-3-boronic acid],164 °C
16,CCCCCC=O [hexanaldehyde],-56 °C
17,Cc1cc(O)ccc1Cl [4-Chloro-3-methylphenol],67 °C
18,CCCC(=O)c1ccccc1 [butyrophenone],12 °C
19,Cc1cc([N+](=O)[O-])ccc1Cl [2-chloro-5-nitrotoluene],43 °C
20,"CC(Br)CBr (stereo unspecified) [1,2-dibromopropane]",-55 °C
21,COc1cc(N)c(Cl)cc1C(=O)NC1CCN(CCCOc2ccc(F)cc2)CC1OC (stereo unspecified) [Cisapride],110 °C
22,CCOC(=O)C(C#N)=C(SC)N(C)C [ethyl 2-cyano-3-(dimethylamino)-3-(methylthio)acrylate],92 °C
23,FC(F)(F)c1cccc(Cl)n1 [2-chloro-6-(trifluoromethyl)pyridine],29 °C
24,CC(C)CBr [1-bromo-2-methylpropane],-117 °C and -118 °C
25,CCCCCCCCC(CCCCCC)C(=O)O (stereo unspecified) [2-n-hexyldecanoic acid],10 °C
26,OCCOCCO [diethylene glycol],-10 °C

row,Compound,melting point
1,O=C(O)CCCCCCCCCCCCCCCO [16-hydroxyhexadecanoic acid],99 °C
2,CCCCP(CCCC)CCCC [tri-n-butylphosphine],-65 °C
3,Cc1noc(NS(=O)(=O)c2ccc(N)cc2)c1C [Sulfisoxazole],194 °C
4,CC[SiH](CC)CC [triethylsilane],-157 °C
5,CCC(C)Cl (stereo unspecified) [2-chlorobutane],-141 °C
6,Cc1n[nH]cc1-c1ccccc1 [3-methyl-4-phenyl-1h-pyrazole],142 °C
7,O=Cc1cccnc1Cl [2-chloropyridine-3-carboxaldehyde],52 °C
8,c1ccc2cc3ccccc3cc2c1 [Anthracene],216 °C
9,"Clc1ccc(Br)c(Cl)c1 [1-bromo-2,4-dichlorobenzene]",27 °C
10,O=Cc1ccc2c(c1)OCO2 [piperonal],37 °C
11,CC(C)(C)N [tert-butylamine],-67 °C
12,Brc1ccc2ccccc2c1 [2-bromonaphthalene],55 °C
13,O=C(O)[C@@H]1C[C@@H]2C[C@H]1[C@@H](O)C2,161 °C
14,CC(=O)c1ccc(S(=O)(=O)NC(=O)NC2CCCCC2)cc1 [acetohexamide],188 °C
15,C/C=C\CCCCC [cis-2-octene],-100 °C
16,CCCCC#N [Valeronitrile],-96 °C
17,Cc1cccc(C(N)=O)c1 [m-toluamide],96 °C
18,Oc1ccccc1I [o-iodophenol],42 °C
19,CCOC(=O)OCC [diethyl carbonate],-43 °C
20,Cc1c(C(=O)O)cnn1-c1ccccc1 [OSM-S-24],168 °C
21,"CCCC(c1ccccc1)c1ccccc1 [1,1-diphenylbutane]",-25 °C
22,Nc1ccn([C@@H]2O[C@H](CO)[C@@H](O)[C@H]2O)c(=O)n1 [Cytidine],210 °C
23,CCCC[C@@H](NC(=O)OCc1ccccc1)C(=O)O [N-benzyloxycarbonyl-D-norleucine],57 °C
24,"COCCOC [1,2-dimethyloxyethane]",-58 °C
25,CN(C)C(=O)Nc1ccc(Cl)c(Cl)c1 [diuron],158 °C (2×) and 159 °C
26,O=C(/C=C/c1ccc(-c2ccc(Br)cc2)o1)c1ccco1,165 °C

row,Compound,melting point
1,Cc1ccc(N)c(Br)c1 [2-bromo-4-methylaniline],14 °C
2,COc1cc(O)c2c(=O)c(OC3OC(CO)C(O)C(O)C3OC3OC(C)C(O)C(O)C3O)c(-c3ccc(O)c(O)c3)oc2c1 (stereo unspecified),187 °C
3,"Cc1ccc(C)c(-c2ccc([N+](=O)[O-])cc2)c1 [2,5-Dimethyl-4'-nitrobiphenyl]",98.3 °C
4,"O=C(/C=C/c1ccc2ccccc2c1)/C=C/c1ccc2ccccc2c1 [(1E,4E)-1,5-Di(2-naphthyl)-1,4-pentadien-3-one]",244 °C and 245 °C
5,"Clc1cccc2c1=NC(c1ccccc1)C=2c1ccccc1 (stereo unspecified) [7-chloro-2,3-diphenyl-1H-indole]",98 °C
6,O=C/C=C/c1ccccc1 [(2E)-3-Phenylacrylaldehyde],-7 °C
7,N#CCc1ccccc1C#N [o-cyano_phenylacetonitrile],80 °C
8,OCc1ccccc1O [2-hydroxybenzyl alcohol],85 °C
9,"C1CSCCSCCNCCSCCSCCN1 [1,4,10,13-tetrathia-7,16-diazacyclooctadecane]",130 °C
10,CC(=O)Oc1ccccc1C(=O)O [aspirin],142 °C
11,"O=Cc1c(Cl)cccc1Cl [2,6-dichlorobenzaldehyde]",71 °C and 71.5 °C
12,C=CCc1ccccc1O [2-allylphenol],-6 °C
13,Cc1cccc(Nc2ccncc2S(=O)(=O)NC(=O)NC(C)C)c1 [Torasemide],164 °C
14,CC(=O)S[C@@H]1CC2=CC(=O)CC[C@]2(C)[C@H]2CC[C@@]3(C)[C@@H](CC[C@@]34CCC(=O)O4)[C@H]12 [Spironolactone],134 °C
15,C=CCCCCC [1-heptene],-119 °C
16,CCCCCCCCC [Nonane],-53 °C
17,CCCCCCc1ccccc1 [Hexylbenzene],-61 °C
18,FC(F)(F)c1ccc(P(c2ccc(C(F)(F)F)cc2)c2ccc(C(F)(F)F)cc2)cc1 [tris[4-(trifluoromethyl)phenyl]phosphine],74 °C
19,OB(O)c1ccc(C(F)(F)F)cc1 [4-(trifluoromethyl)benzeneboronic acid],240 °C
20,C/C(=C/C(=O)NN)C(=O)NN [citraconic hydrazide],286 °C
21,CC/C(=C(/CC)c1ccc(O)cc1)c1ccc(O)cc1 [diethylstilbestrol],178 °C
22,"O=C(c1ccccc1)C(O)c1ccccc1 (stereo unspecified) [2-Hydroxy-1,2-diphenylethanone]",135 °C
23,OC[C@H]1O[C@H](O)[C@H](O)[C@@H](O)[C@@H]1O [alpha-D-Glucopyranose],154 °C
24,[O-][I+3]([O-])([O-])O [Periodic acid],122 °C
